Here are results for 27 molecules from US11753399B2, “Therapeutic compounds” (Gilead Sciences, Inc., priority 2018, dated 2023).

What is called inhibition is the share of the control response that was lost under treatment. One may read the CC50 as the concentration at which the toxic effect on the cells reaches its halfway point. A low value points to harm at low concentration.

Bounds are passed on as bounds.

One data set deals with HIV-IIIb. Description: Test A: Antiviral Assay in MT4 Cells. Type of data set: cell-based, HIV-1. To be noted: Human immunodeficiency virus 1, MT4, 120 h, inhibition of virus-induced cell killing, MT-4 cells, HIV-IIIb, 5 days, values normalized to 100%; for inhibition at 0.01 µM: from dose response curve at 0.01 μM (10 nM), read-out: % inhibition at 0.01 μM; for inhibition at 0.2 µM: from dose response curve at 0.20 μM (200 nM), read-out: % inhibition at 0.20 μM. How it is done: (§1) MT-4 cells were next mixed with HIV-IIIb at a multiplicity of infection (m.o.i.) of 0.003 for 1 hour, after which time 35 μL of virus/cell mixture (2000 cells) was immediately added to each well containing 40 μL of diluted compound. The plates were then incubated at 37° C. for 5 days. After 5 days of incubation, 25 μl of 2× concentrated CellTiter-Glo Reagent (catalog #G7571, Promega Biosciences, Inc., Madison, Wis.) was added to each well containing MT-4 cells. Cell lysis was carried out by incubating at room temperature for 10 min and then chemiluminescence was read.

A short description of data set [1]: Test B: Cytotoxicity Assay (same protocol as Test A, uninfected cells). To be noted: human, uninfected MT-4 cells, CellTiter-Glo. It counts as cell-based. How it is done: as §1, with “read. […] Compound cytotoxicity and the corresponding CC50 values was determined using the same protocol as described in the antiviral assay (Test A) except that uninfected cells were used.” for “read.”
A general note: In ATP-based viability assays light output follows the ATP content of the culture.

In the case of `CC1(S(=O)(=O)Nc2nn(CC(F)F)c3c(-c4ccc(C#CC(C)(C)S(=O)(=O)C5CC5)nc4[C@H](Cc4cc(F)cc(F)c4)NC(=O)Cn4nc(C(F)F)c5c4C(F)(F)CCC5(F)F)ccc(Cl)c23)CC1` [Example 37], in the data set with HIV-IIIb, the inhibition at 0.01 µM came out at 92% and the inhibition at 0.2 µM was 92%. In data set [1], the half-maximal cytotoxic concentration (CC50) at 5 days is over 57.1 µM.
Consider `Cn1nc(NS(C)(=O)=O)c2c(Cl)ccc(-c3ccc(C#CC(C)(C)S(=O)(=O)C4CC4)nc3[C@H](Cc3cc(F)cc(F)c3)NC(=O)Cn3nc(C(F)F)c4c3C(F)(F)CCC4(F)F)c21` [Example 38], for which, in the data set on HIV-IIIb, the inhibition at 0.01 µM is 93% and the inhibition at 0.2 µM came to 93%. Moreover, the half-maximal cytotoxic concentration (CC50) at 5 days in data set [1] is over 57.1 µM.
For `Cn1nc(NS(=O)(=O)C2CC2)c2c(Cl)ccc(-c3ccc(C#CC(C)(C)S(=O)(=O)C4CC4)nc3[C@H](Cc3cc(F)cc(F)c3)NC(=O)Cn3nc(C(F)F)c4c3C(F)(F)CCC4(F)F)c21` [Example 39], in the data set on HIV-IIIb, the inhibition at 0.01 µM is 99% and the inhibition at 0.2 µM was 99%. The molecule also showed a CC50 at 5 days in data set [1] of over 57.1 µM.
For the molecule `Cn1nc(NS(=O)(=O)C2CC2)c2cccc(-c3ccc(C#CC(C)(C)S(=O)(=O)C4CC4)nc3[C@H](Cc3cc(F)cc(F)c3)NC(=O)Cn3nc(C(F)F)c4c3C(F)(F)[C@@H]3C[C@H]43)c21` [Example 40], in the data set on HIV-IIIb, the inhibition at 0.01 µM amounted to 84% and the inhibition at 0.2 µM was determined as 84%. In data set [1], this molecule yielded a 50% cytotoxic concentration (CC50) at 5 days of over 57.1 µM.
As to `CC(C)(C#Cc1ccc(-c2ccc(Cl)c3c(NS(=O)(=O)C4CC4)nn(C4COC4)c23)c([C@H](Cc2cc(F)cc(F)c2)NC(=O)Cn2nc(C(F)F)c3c2C(F)(F)[C@@H]2C[C@H]32)n1)S(=O)(=O)C1CC1` [Example 41], in the data set with HIV-IIIb, the inhibition at 0.01 µM turned out to be 100% and the inhibition at 0.2 µM was found to be 100%. For the same molecule, the CC50 at 5 days in data set [1] is over 57.1 µM.
As for `CC(C)(C#Cc1ccc(-c2ccc(Cl)c3c(NS(C)(=O)=O)nn(CC(F)F)c23)c([C@H](Cc2cc(F)cc(F)c2)NC(=O)Cn2nc(C(F)F)c3c2C(F)(F)CCC3(F)F)n1)S(=O)(=O)C1CC1` [Example 42], in the data set with HIV-IIIb, the inhibition at 0.01 µM amounted to 89% and the inhibition at 0.2 µM was determined as 89%. The same molecule came in with a CC50 at 5 days in data set [1] of over 57.1 µM.
As for `Cn1nc(NS(C)(=O)=O)c2c(Cl)ccc(-c3ccc(C#CC(C)(C)S(=O)(=O)C4CC4)nc3[C@H](Cc3cc(F)cc(F)c3)NC(=O)Cn3nc(C(F)F)cc3C(F)F)c21` [Example 43], in the data set on HIV-IIIb, the inhibition at 0.01 µM was found to be 87% and the inhibition at 0.2 µM was 87%. Also, in data set [1], the CC50 at 5 days was over 57.1 µM.
Turning to `Cn1nc(NS(C)(=O)=O)c2c(Cl)ccc(-c3ccc(C#CC(C)(C)S(=O)(=O)C4CC4)nc3[C@H](Cc3cc(F)cc(F)c3)NC(=O)Cn3nc(C(F)(F)F)cc3C3CC3)c21` [Example 44], in the data set with HIV-IIIb, the inhibition at 0.01 µM turned out to be 87% and the inhibition at 0.2 µM was found to be 92%. This molecule also returned a half-maximal cytotoxic concentration (CC50) at 5 days in data set [1] of over 54.8 µM.
In the same order, the values of `Cn1nc(NS(C)(=O)=O)c2c(Cl)ccc(-c3ccc(C#CC(C)(C)S(=O)(=O)C4CC4)nc3[C@H](Cc3cc(F)cc(F)c3)NC(=O)Cn3cnnn3)c21` [Example 45] are 96%, 97% and 20.1 µM.
In the case of `Cn1nc(NS(C)(=O)=O)c2c(Cl)ccc(-c3ccc(C#CC(C)(C)S(=O)(=O)C4CC4)nc3[C@H](Cc3cc(F)cc(F)c3)NC(=O)Cc3nnn[nH]3)c21` [Example 46], in the data set on HIV-IIIb, the inhibition at 0.01 µM was found to be 0% and the inhibition at 0.2 µM came out at 10%. Moreover, the half-maximal cytotoxic concentration (CC50) at 5 days in data set [1] is over 54.6 µM.
In the same order, the values of `Cn1nc(NS(C)(=O)=O)c2c(Cl)ccc(-c3ccc(C#CC(C)(C)S(=O)(=O)C4CC4)nc3[C@H](Cc3cc(F)cc(F)c3)NC(=O)Cn3cnnc3)c21` [Example 47] are 0%, 0% and over 57.1 µM.
Turning to `Cn1nc(NS(C)(=O)=O)c2c(Cl)ccc(-c3ccc(C#CC(C)(C)S(=O)(=O)C4CC4)nc3[C@H](Cc3cc(F)cc(F)c3)NC(=O)Cn3ccnn3)c21` [Example 48], in the data set on HIV-IIIb, the inhibition at 0.01 µM stood at 0% and the inhibition at 0.2 µM was determined as 0%. The CC50 at 5 days in data set [1] was over 57.1 µM.
For `Cn1nc(NS(C)(=O)=O)c2c(Cl)ccc(-c3ccc(C#CC(C)(C)S(=O)(=O)C4CC4)nc3[C@H](Cc3cc(F)cc(F)c3)NC(=O)Cn3ccnc3)c21` [Example 49], in the data set with HIV-IIIb, the inhibition at 0.01 µM is 0% and the inhibition at 0.2 µM amounted to 90%. Also, the CC50 at 5 days in data set [1] is over 57.1 µM.
Regarding `Cn1nc(NS(C)(=O)=O)c2c(Cl)ccc(-c3ccc(C#CC(C)(C)S(=O)(=O)C4CC4)nc3[C@H](Cc3cc(F)cc(F)c3)NC(=O)Cn3cccn3)c21` [Example 50], in the data set with HIV-IIIb, the inhibition at 0.01 µM was 0% and the inhibition at 0.2 µM was determined as 36%. The molecule further displayed a CC50 at 5 days in data set [1] of over 53.6 µM.
Taken in the same sequence, the figures for `CCS(=O)(=O)Nc1nn(CC(F)F)c2c(-c3ccc(C#CC(C)(C)S(=O)(=O)C4CC4)nc3[C@H](Cc3cc(F)cc(F)c3)NC(=O)Cn3nc(C(F)F)c4c3C(F)(F)[C@@H]3C[C@H]43)cccc12` [Example 51] were 67%, 91% and 51.2 µM.
Taken in the same sequence, the figures for `CC(C)(C#Cc1ccc(-c2cccc3c(NS(=O)(=O)C4CC4)nn(CC(F)F)c23)c([C@H](Cc2cc(F)cc(F)c2)NC(=O)Cn2nc(C(F)F)c3c2C(F)(F)[C@@H]2C[C@H]32)n1)S(=O)(=O)C1CC1` [Example 52] were 93%, 93% and over 57.1 µM.
Taken in the same sequence, the figures for `Cn1nc(NS(C)(=O)=O)c2c(Cl)ccc(-c3ccc(C#CC(C)(C)S(=O)(=O)C4CC4)nc3[C@H](Cc3cc(F)cc(F)c3)NC(=O)Cc3nc4ccccc4[nH]3)c21` [Example 54] were 18%, 99% and 29.8 µM.
On to `Cn1nc(NS(C)(=O)=O)c2c(Cl)ccc(-c3ccc(C#CC(C)(C)S(=O)(=O)C4CC4)nc3[C@H](Cc3cc(F)cc(F)c3)NC(=O)c3ccn[nH]3)c21` [Example 55], for which, in the data set on HIV-IIIb, the inhibition at 0.01 µM amounted to 86% and the inhibition at 0.2 µM came out at 96%. Further, in data set [1], the CC50 at 5 days is 22.2 µM.
Take `Cn1nc(NS(C)(=O)=O)c2c(Cl)ccc(-c3ccc(C#CC(C)(C)S(=O)(=O)C4CC4)nc3[C@H](Cc3cc(F)cc(F)c3)NC(=O)Cn3nc(C(F)F)c(Cl)c3C(F)F)c21` [Example 56]: in the data set with HIV-IIIb, the inhibition at 0.01 µM is 0% and the inhibition at 0.2 µM was determined as 91%. The molecule further showed a CC50 at 5 days in data set [1] of 23.5 µM.
In the same order, the values of `CC(C)(C#Cc1ccc(-c2ccc(F)c3c(NS(=O)(=O)C4CC4)nn(CC(F)F)c23)c([C@H](Cc2cc(F)cc(F)c2)NC(=O)Cn2nc(C(F)(F)F)c3c2C(F)(F)[C@@H]2C[C@H]32)n1)S(=O)(=O)C1CC1` [Example 57] are 59%, 91% and over 57.1 µM.
On to `Cn1nc(NS(C)(=O)=O)c2c(Cl)ccc(-c3ccc(C#CC(C)(C)S(=O)(=O)C4CC4)nc3[C@H](Cc3cc(F)cc(F)c3)NC(=O)Cn3nc(C(F)F)c(Br)c3C(F)F)c21` [Example 58], for which, in the data set with HIV-IIIb, the inhibition at 0.01 µM was determined as 95% and the inhibition at 0.2 µM was 95%. In data set [1], this molecule yielded a CC50 at 5 days of over 57.1 µM.
As to `Cn1nc(NS(C)(=O)=O)c2c(Cl)ccc(-c3ccc(C#CC(C)(C)S(=O)(=O)C4CC4)nc3[C@H](Cc3cc(F)cc(F)c3)NC(=O)Cn3nc(C(F)F)c(C4CC4)c3C(F)F)c21` [Example 59], in the data set on HIV-IIIb, the inhibition at 0.01 µM was 81% and the inhibition at 0.2 µM came out at 93%. The half-maximal cytotoxic concentration (CC50) at 5 days in data set [1] is over 57.1 µM.
On to `Cn1nc(NS(C)(=O)=O)c2c(Cl)ccc(-c3ccc(C#CC(C)(C)S(=O)(=O)C4CC4)nc3[C@H](Cc3cc(F)cc(F)c3)NC(=O)CCn3cccn3)c21` [Example 60], for which, in the data set on HIV-IIIb, the inhibition at 0.01 µM turned out to be 100% and the inhibition at 0.2 µM stood at 100%. Moreover, half-maximal cytotoxicity in data set [1] (CC50 at 5 days) was put at 19.2 µM.
Regarding `Cn1nc(NS(C)(=O)=O)c2c(Cl)ccc(-c3ccc(C#CC(C)(C)S(=O)(=O)C4CC4)nc3[C@H](Cc3cc(F)cc(F)c3)NC(=O)Cn3ncc4ccccc43)c21` [Example 61], in the data set with HIV-IIIb, the inhibition at 0.01 µM was 3% and the inhibition at 0.2 µM worked out at 98%. This molecule returned a half-maximal cytotoxic concentration (CC50) at 5 days in data set [1] of 28.4 µM.
In the same order, the values of `Cn1nc(NS(C)(=O)=O)c2c(Cl)ccc(-c3ccc(C#CC(C)(C)S(=O)(=O)C4CC4)nc3[C@H](Cc3cc(F)cc(F)c3)NC(=O)Cn3cnc4ccccc43)c21` [Example 62] are 56%, 93% and 30.7 µM.
For the molecule `Cn1nc(NS(C)(=O)=O)c2c(Cl)ccc(-c3ccc(C#CC(C)(C)S(=O)(=O)C4CC4)nc3[C@H](Cc3cc(F)cc(F)c3)NC(=O)Cn3nnc4ccccc43)c21` [Example 63], in the data set on HIV-IIIb, the inhibition at 0.01 µM was 1% and the inhibition at 0.2 µM is 100%. In data set [1], this molecule registered a CC50 at 5 days of 21.8 µM.
Taken in the same sequence, the figures for `Cn1nc(NS(C)(=O)=O)c2c(Cl)ccc(-c3ccc(C#CC(C)(C)S(=O)(=O)C4CC4)nc3[C@H](Cc3cc(F)cc(F)c3)NC(=O)Cn3cc(C(F)(F)F)nc3C3CC3)c21` [Example 64] were 45%, 94% and over 50 µM.
